Tests used:
[1] = tested on: O4+ OLs in subcortical white matter; assay: OL proliferation and maturation in vivo in pups without insult; parameters: species or system rat; settings: 30 mg/kg topiramate or 20 mg/kg NBQX; for number of proliferating (BrdU labeled, O4+) OLs in subcortical white matter: 4 injections every 12 hours at P7 and P8, no insult, vs vehicle; for maturation of white matter (O4, O1, MBP immunohistostaining), qualitative: 4 injections every 12 hours at P7 and P8, at P9 or P11
Method: Litters of male Long Evans rat pups (Charles River Laboratories, Wilmington, Mass.) were raised with dams in a temperature-controlled environment with 12 hour light-dark cycles. Pups underwent carotid ligation and hypoxia at post-natal-day (P)7. They were recovered on a thermal blanket at 33-34° C. (baseline temperature for P7 rats) and returned to their dam for 48-96 hours prior to sacrifice. Treated pups were given intra-peritoneal (i.p.) injections of 0.1 cc solutions of topiramate, NBQX or vehicle every 12 hours for 48 hours at P7 and P8 for treatment, control and normal development studies.
Oligodendrocyte maturation and myelin expression were evaluated in animals treated for 48 hours with topiramate as compared with normal development. The sub-cortical white matter was evaluated by immunocytochemistry with antibodies to O4, O1 and myelin basic protein (MBP), for changes in pre-myelinating OL populations and in the pattern of MBP expression in rats sacrificed at P9, acutely after treatment. To evaluate for any permanent effect on mature myelination, the quantity of MBP at P28 in animals treated for 48 hours at P7/8 with topiramate was compared with untreated littermates by Western blot.
Histological and immunocytochemical (ICC) analysis was carried out on serial 20-30 μm coronal sections, cut by either cryostat (for pre-mounted sections) or freezing microtome (floating sections) from the anterior extent of the lateral ventricles through the posterior extent of the dorsal hippocampus. Representative sections from all experimental animals were stained with hematoxylin and eosin (HE) for routine evaluation.
For ICC evaluation, adjacent mounted sections were incubated in 5-10% normal goat serum for one hour to block non-specific binding and concurrently permeabilized in 0.1% Triton X-100. Slides were incubated with MBP antibody (SMA-99, Sternberger Monoclonals, Baltimore, Md.) at a dilution of 1:800 in PBS with 1% normal goat serum plus 0.1% Triton overnight at 4° C., followed by Oregon Green (Molecular Probes, Eugene, Oreg.) anti-mouse IgG secondary antibody for one hour at room temperature. […]
Litters were divided and pups received 4 injections, one every 12 hours for 48 hours at P7 and P8, of either vehicle (n=6), 30 mg/kg topiramate (n=7) or 20 mg/kg NBQX (n=7). […] At the completion of 48 hours the animals were sacrificed and the number of BrdU labeled, O4+ OLs present in the subcortical white matter of coronal sections (n=20/group) were counted (FIG. 5B). […] Furthermore, qualitative analysis of white matter by immunohistostaining for OL stage-specific markers O4, O1 and MBP was carried out in serial sections of the same animals evaluated above.

[2] = tested on: AMPA receptors in cerebral white matter; assay: Intracerebral AMPA injection white matter injury; type: in vivo; settings: P7 rats, 5 nmol AMPA plus 5 nmol MK-801, systemic NBQX post-treatment, t test p<0.005
Method: The methods used in this example are described in Follett et al. (2000) J. Neurosci. 20:9235-9241, incorporated by reference herein.
NBQX attenuation of the selective white matter injury after hypoxia/ischemia implicated GluR-mediated toxicity as an important mechanism of injury in immature OLs. To confirm a relationship between the activation of AMPA receptors in cerebral white matter and the vulnerability to injury, AMPA was injected directly into immature white matter. […] Minimal to no injury was present in vehicle-injected controls (M K801 alone; n=7) at the same age (t test, p<0.001).
To determine whether AMPA toxicity was age dependent, lesion size after intracerebral AMPA injections at P4, P7, and P11 was compared.

| SMILES | number of proliferating (BrdU labeled, O4+) OLs in subcortical white matter [1] | maturation of white matter (O4, O1, MBP immunohistostaining), qualitative [1] | white matter injury (lesion size) after intracerebral AMPA [2] |
| --- | --- | --- | --- |
| CC1(C)O[C@@H]2[C@@H](CO[C@@]3(COS(N)(=O)=O)OC(C)(C)O[C@@H]23)O1 [topiramate] | No difference in the number of proliferating OLs was detected | No qualitative difference in maturation was seen |  |
| NS(=O)(=O)c1cccc2c1c([N+](=O)[O-])cc1nc(O)c(O)nc12 [NBQX, 2,3-Dioxo-6-nitro-1,2,3,4-tetrahydrobenzo[f]quinoxaline-7-sulphonamide] | No difference in the number of proliferating OLs was detected | No qualitative difference in maturation was seen | significantly attenuated white matter injury |

Source: patent US6921775B2, “Methods for modulating brain damage” (Children's Medical Center Corporation, priority 2001, dated 2005)
